Source: paper PMC3277886, “High-affinity fluorescent ligands for the 5-HT3 receptor” (Bioorganic & Medicinal Chemistry Letters, 2012)
Read-outs that look alike come from different tables or passages of the source.

Key:
human 5-HT3AR [1] = target: T1, human 5-HT3AR (Homo sapiens, UniProt P46098); conditions: read-out: Ki (nM) mean ± SEM; cited from earlier work
T1 construct: expressed in transfected cells
T1 sequence (P46098 24-478): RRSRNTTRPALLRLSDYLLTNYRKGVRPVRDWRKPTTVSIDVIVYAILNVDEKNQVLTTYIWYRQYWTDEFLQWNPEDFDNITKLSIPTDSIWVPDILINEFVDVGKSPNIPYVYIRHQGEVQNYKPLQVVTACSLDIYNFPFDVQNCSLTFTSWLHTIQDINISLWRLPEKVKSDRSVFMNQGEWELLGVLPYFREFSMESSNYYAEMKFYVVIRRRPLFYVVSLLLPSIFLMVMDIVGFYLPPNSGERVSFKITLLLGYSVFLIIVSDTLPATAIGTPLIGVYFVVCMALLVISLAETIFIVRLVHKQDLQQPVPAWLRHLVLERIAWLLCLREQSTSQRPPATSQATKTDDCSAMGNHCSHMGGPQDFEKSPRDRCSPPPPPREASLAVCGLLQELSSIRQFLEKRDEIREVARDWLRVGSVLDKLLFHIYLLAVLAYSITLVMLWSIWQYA

human 5-HT3AR [2] = target: T1, human 5-HT3AR; assay: competition binding studies with [3H]granisetron
Protocol: The photophysical properties of fluorescent granisetron derivatives were measured in MeOH and/or phosphate buffer at pH 7 (Table 1). […]. […] The binding affinities of the fluorescent granisetron probes for the human 5-HT3AR were determined by competition binding studies with [^3H]granisetron. […]. In terms of probe design it appears that optimal binding is obtained if the fluorophore is conjugated to N1 of granisetron via a short (butyl) aliphatic spacer. […]
(5) Radioligand binding and fluorescence microscopy
Materials, cell culture maintenance, receptor expression and radioligand binding for […]

human 5-HT3A receptors = target: T2, human 5-HT3A receptors (Homo sapiens, UniProt P46098); assay: live cell imaging (fluorescence microscopy) of COS-7 cells transiently transfected with human 5-HT3A receptors; type: cell-based; conditions: 100 nM probe; for selectivity of staining: 5-HT3A-transfected versus mock transfected cells / detectable staining of cells: 1 h; for selectivity of staining: 5-HT3A-transfected versus mock transfected cells / inhibition of staining by co-incubation with ondansetron: live COS-7 cells; for selectivity of staining: 5-HT3A-transfected versus mock transfected cells: transfected vs mock transfected; for detectable staining of cells: HBS buffer, room temperature, live COS-7 cells transfected with human 5-HT3A; for inhibition of staining by co-incubation with ondansetron: co-incubation with ondansetron (OND) 10 μM
T2 construct: myc; expressed in transfected cells; host or cells: COS-7
T2 sequence (P46098 24-478): T1 sequence (P46098 24-478)
Protocol: The utility of granisetron probes 16–18, 26–28 and 36 to fluorescently label the receptor was studied using live cell imaging of COS-7 cells transiently transfected with human 5-HT3A receptors.
Figure 2 Fluorescent labeling of human 5-HT3AR in live COS-7 cells. Cells were either transfected with human 5HT3A cDNA (left and middle panels), or mock transfected (right panels). 24 h later they were incubated with 100 nM of probes 16, 18 or 28 in HBS buffer for 1 h at room temperature in the dark. The cells were imaged using a fluorescence microscope set to the appropriate absorption/emission wavelengths (Table 1). Some cells were also co-incubated with 10 μM ondansetron (OND, middle panels) to block 5-HT3 receptors. Scale bar represents 50 μm. […]
(5) Radioligand binding and fluorescence microscopy […]
For the fluorescence microscopy experiments COS-7 cells were transiently transfected with human 5-HT3A-myc cDNA (10 µg per transfection of […]) by electroporation (400 V, ∞ Ω, 125 µF), and grown on coverslips for 24 hours. Cells were washed with HBS then incubated with 100 nM of each probe (diluted in HBS) for 1 hour at room temperature in the dark. In some experiments 10 µM unlabelled ondansetron (OND) was co-incubated with the probes. Excess probe was removed by washing four times in HBS, and coverslips were placed in an imaging chamber with 1 ml HBS. Cells were then imaged using a fluorescence microscope set to the appropriate emission/excitation wavelengths. […]

[3] = human 5-HT3AR, competition with [3H]granisetron, read-out: Ki (nM) mean ± SEM

SMILES	Ki (human 5-HT3AR [2]) [nM]	Ki (human 5-HT3AR [2]; [3]) [nM]	further results
COc1cccc2c1c(C(=O)NC1CC3CCCC(C1)N3C)nn2C (stereo not drawn) [Probe 2]	–	–	Ki (human 5-HT3AR [1]): 26 ± 7 nM
COc1cccc2c(C(=O)NC3CC4CCCC(C3)N4C)nn(C)c12 (stereo not drawn) [Probe 5]	–	–	Ki (human 5-HT3AR [1]): 71 ± 8 nM
Cc1cc(C)n2c1C=C1C=CC(CCC(=O)NCCCn3nc(C(=O)NC4CC5CCCC(C4)N5C)c4ccccc43)=[N+]1[B-]2(F)F (stereo not drawn) [Probe 6]	–	–	Ki (human 5-HT3AR [1]): 2.8 ± 0.7 nM
COc1ccc(C2=[N+]3C(=Cc4c(C)c(CCC(=O)NCCCCCC(=O)NCCCn5nc(C(=O)NC6CC7CCCC(C6)N7C)c6ccccc65)c(C)n4[B-]3(F)F)C=C2)cc1 (stereo not drawn) [Probe 14]	0.9 ± 0.3	–	–
CCN(CC)c1ccc2cc(C(=O)NCCCn3nc(C(=O)NC4CC5CCCC(C4)N5C)c4ccccc43)c(=O)oc2c1 (stereo not drawn) [Probe 15]	199 ± 39	–	–
CN1C2CCCC1CC(NC(=O)c1nn(CCCNC(=S)Nc3ccc(-c4c5ccc(=O)cc-5oc5cc(O)ccc45)c(C(=O)O)c3)c3ccccc13)C2 (stereo not drawn) [Probe 16]	–	1.6 ± 0.3	selectivity of staining: 5-HT3A-transfected versus mock transfected cells (human 5-HT3A receptors): selective staining for 5-HT3R; detectable staining of cells (human 5-HT3A receptors): detectable staining; inhibition of staining by co-incubation with ondansetron (human 5-HT3A receptors): inhibited by co-incubation with the 5-HT3R antagonist ondansetron
CCN(CC)c1ccc2cc(C(=O)NCCCCn3nc(C(=O)NC4CC5CCCC(C4)N5C)c4ccccc43)c(=O)oc2c1 (stereo not drawn) [Probe 17]	–	7.3 ± 2.5	–
CN1C2CCCC1CC(NC(=O)c1nn(CCCCNC(=S)Nc3ccc(-c4c5ccc(=O)cc-5oc5cc(O)ccc45)c(C(=O)O)c3)c3ccccc13)C2 (stereo not drawn) [Probe 18]	1.1 ± 0.2	–	selectivity of staining: 5-HT3A-transfected versus mock transfected cells (human 5-HT3A receptors): selective staining for 5-HT3R; detectable staining of cells (human 5-HT3A receptors): detectable staining; inhibition of staining by co-incubation with ondansetron (human 5-HT3A receptors): inhibited by co-incubation with the 5-HT3R antagonist ondansetron
CCN(CC)c1ccc2cc(C(=O)NCCOCCOCCn3nc(C(=O)NC4CC5CCCC(C4)N5C)c4ccccc43)c(=O)oc2c1 (stereo not drawn) [Probe 20]	–	142 ± 5	–
CN1C2CCCC1CC(NC(=O)c1nn(CCOCCOCCNC(=S)Nc3ccc(-c4c5ccc(=O)cc-5oc5cc(O)ccc45)c(C(=O)O)c3)c3ccccc13)C2 (stereo not drawn) [Probe 21]	–	6300	–
CCN(CC)c1ccc2c(-c3ccc(NC(=S)NCCOCCOCCn4nc(C(=O)NC5CC6CCCC(C5)N6C)c5ccccc54)cc3C(=O)[O-])c3ccc(=[N+](CC)CC)cc-3oc2c1 (stereo not drawn) [Probe 22]	–	384 ± 68	–
CN1C2CCCC1CC(NC(=O)c1nn(CCCNc3ccc([N+](=O)[O-])c4nonc34)c3ccccc13)C2 (stereo not drawn) [Probe 26]	–	8.7 ± 5.8	–
CN(C)c1cccc2c(S(=O)(=O)NCCCn3nc(C(=O)N[C@H]4C[C@H]5CCC[C@@H](C4)N5C)c4ccccc43)cccc12 [Probe 27]	–	1.2 ± 0.6	–
CC1=CC(C)=[N+]2C1=C(CCCOC(=O)CCCn1nc(C(=O)NC3CC4CCCC(C3)N4C)c3ccccc31)c1c(C)cc(C)n1[B-]2(F)F (stereo not drawn) [Probe 28]	–	1.6 ± 0.8	selectivity of staining: 5-HT3A-transfected versus mock transfected cells (human 5-HT3A receptors): intense fluorescence in both 5-HT3A- and mock-transfected cells; detectable staining of cells (human 5-HT3A receptors): detectable staining; inhibition of staining by co-incubation with ondansetron (human 5-HT3A receptors): not blocked by ondansetron
CCN(CC)c1ccc2cc(C(=O)NCCOc3cccc4c(C(=O)NC5CC6CCCC(C5)N6C)nn(C)c34)c(=O)oc2c1 (stereo not drawn) [Probe 36]	1.9 ± 0.9	–	–
CCN(CC)c1ccc2cc(C(=O)NCCCOc3cccc4c(C(=O)N[C@H]5C[C@H]6CCC[C@@H](C5)N6C)nn(C)c34)c(=O)oc2c1 [Probe 37]	157 ± 9	–	–
CCN(CC)c1ccc2cc(C(=O)NCCOCCOCCOc3cccc4c(C(=O)N[C@@H]5C[C@H]6CCC[C@@H](C5)N6C)nn(C)c34)c(=O)oc2c1 [Probe 38]	–	1300	–
CN1[C@@H]2CCC[C@H]1C[C@@H](NC(=O)c1nn(C)c3c(OCCOCCOCCNC(=S)Nc4ccc(-c5c6ccc(=O)cc-6oc6cc(O)ccc56)c(C(=O)O)c4)cccc13)C2 [Probe 39]	208 ± 55	–	–
